Data as given in patent US4313956A, “Novel sypathomimetic amine prodrugs” (INTERx Research Corp., priority 1979, dated 1982).
Values joined by “and” are separate entries in the source; they are usually repeats but may differ in a detail not shown here. Equal entries are not always repeated.

Experiments:
[1] = test system: burn response of the right ear of female Sprague-Dawley rats; assay: Ear Burn Test (anti-inflammatory activity, ear burn model); assay type: in vivo; settings: for mean (-x) of Δ %, % increase in thickness of the treated ear: group mean; for R ear (thickness of burned, treated ear) / Δ %, % increase in thickness of the treated ear: individual rats; for % inhibition of control response / % inhibition of control response (negative = inflammatory): 50 μl/burned ear, vehicle 90% acetone, 10% IPM, 16-18 hours; for % inhibition of control response (negative = inflammatory): 3 × 10^-2 M
Protocol: The anti-inflammatory activity of dipivalyloxymethylepinephrine (DDME), a novel prodrug according to this invention, was determined in an ear burn model vis-a-vis the known epinephrine prodrug, dipivalylepinephrine (DPE). Three different ear burn experiments were carried out, each experiment developing a comparison at two different drug dosages.
A controlled thermal challenge was administered to the right ear of female Sprague-Dawley rats, 40-60 g. […] Pressure applied during the 21 second burn administration was ca. 640 g/cm^2. Two groups, with and without application of vehicle (90% acetone, 10% isopropyl-myristate) served as controls. Vehicle with or without drug was applied to the right ear immediately after burning in the amount of […]. Rats were killed by cervical disclocation 16-18 hours after treatment and the thickness of each ear was determined with a micrometer (in inches ×10^3). Burn response values were normalized by expression of the % increase in thickness of the treated ear, i.e., [formula] The vehicle-treated control group was considered to be the maximum burn response within any given experiment. Inhibition or reversal of the burn response due to drug treatment is expressed as a percentage of the control response.

psoriatic response = settings: concentrations comparable to 3×10^-2 M; cited from earlier work
[2] = 0.00001 M, n = 8, control/vehicle 44.6%
[3] = 0.0001 M, n = 8, control/vehicle 44.6%
[4] = .00003 M, control/vehicle 40.2 ± 12.6
[5] = .0003 M, control/vehicle 40.2 ± 12.6
[6] = .003 M, control/vehicle 32.5 ± 8.9
[7] = .03 M, control/vehicle 32.5 ± 8.9

Structure (SMILES) | mean (-x) of Δ %, % increase in thickness of the treated ear [1, 2] [%] | R ear (thickness of burned, treated ear) ([1]; 0.00001 M) | Δ %, % increase in thickness of the treated ear ([1]; 0.00001 M) | mean (-x) of Δ %, % increase in thickness of the treated ear [1, 3] [%] | R ear (thickness of burned, treated ear) ([1]; 0.0001 M) | Δ %, % increase in thickness of the treated ear ([1]; 0.0001 M) | % inhibition of control response ([1]; 1 × 10^-4 M) [%] | % inhibition of control response ([1]; 1 × 10^-5 M) [%] | % inhibition of control response (negative = inflammatory) [1] [%] | % inhibition of control response ([1]; 3 × 10^-3 M) [%] | % inhibition of control response ([1]; 3 × 10^-4 M) [%] | % inhibition of control response ([1]; 3 × 10^-5 M) [%] | mean (-x) of Δ %, % increase in thickness of the treated ear [1, 4] [%] | R ear (thickness of burned, treated ear) ([1]; .00003 M) | Δ %, % increase in thickness of the treated ear ([1]; .00003 M) | mean (-x) of Δ %, % increase in thickness of the treated ear [1, 5] [%] | R ear (thickness of burned, treated ear) ([1]; .0003 M) | Δ %, % increase in thickness of the treated ear ([1]; .0003 M) | mean (-x) of Δ %, % increase in thickness of the treated ear [1, 6] [%] | R ear (thickness of burned, treated ear) ([1]; .003 M) | other results
CNCC(O)c1ccc(OCOC(=O)C(C)(C)C)c(OCOC(=O)C(C)(C)C)c1 (stereo not drawn) [DPME, dipivalyloxymethylepinephrine] | 30.5 | 16.3 inches ×10^3 and 16.5 inches ×10^3 and 13.8 inches ×10^3 and 14.1 inches ×10^3 and 17.0 inches ×10^3 and 14.7 inches ×10^3 and 17.8 inches ×10^3 and 16.8 inches ×10^3 | 30.4% and 35.2% and 16.9% and 22.6% and 41.7% and 20.5% and 40.2% and 36.6% | 23.0 | 14.0 inches ×10^3 and 14.7 inches ×10^3 and 13.6 inches ×10^3 and 14.5 inches ×10^3 and 15.4 inches ×10^3 and 14.9 inches ×10^3 and 15.3 inches ×10^3 | 18.6% and 23.5% and 12.4% and 21.8% and 31.6% and 22.5% and 26.3% and 27.5% | 48.4 | 31.6 | -32.6 | 8 | 41.3 | 30.6 | 27.9 ± 6.2 | 15.3 inches ×10^3 and 17.8 inches ×10^3 and 16.6 inches ×10^3 and 16.3 inches ×10^3 and 15.5 inches ×10^3 and 15.4 inches ×10^3 and 16.9 inches ×10^3 | 17.7% and 38.0% and 31.7% and 25.4% and 26.0% and 24.2% and 32.8% and 27.0% | 23.6 ± 7.9 | 17.7 inches ×10^3 and 16.4 inches ×10^3 and 18.0 inches ×10^3 and 17.5 inches ×10^3 and 15.2 inches ×10^3 and 15.5 inches ×10^3 and 15.0 inches ×10^3 and 14.8 inches ×10^3 | 22.1% and 17.1% and 38.5% and 31.6% and 22.6% and 24.0% and 17.2% and 15.6% | 29.9 ± 12.2 | 19.9 inches ×10^3 and 15.1 inches ×10^3 and 18.1 inches ×10^3 and 17.0 inches ×10^3 and 17.1 inches ×10^3 and 15.2 inches ×10^3 and 14.0 inches ×10^3 and 16.9 inches ×10^3 | Δ %, % increase in thickness of the treated ear ([1]; .003 M): 45.3% and 21.8% and 42.5% and 26.9% and 41.3% and 17.8% and 12.9% and 31.0%; mean (-x) of Δ %, % increase in thickness of the treated ear [1, 7]: 43.1 ± 12.4%; R ear (thickness of burned, treated ear) ([1]; .03 M): 18.4 inches ×10^3 and 16.9 inches ×10^3 and 20.7 inches ×10^3 and 18.2 inches ×10^3 and 19.3 inches ×10^3 and 20.9 inches ×10^3 and 19.0 inches ×10^3; Δ %, % increase in thickness of the treated ear ([1]; .03 M): 36.3% and 30.0% and 47.9% and 43.0% and 64.6% and 49.6%; anti-inflammatory effect compared with DPE ([1]; low concentration levels): consistently elicits a greater anti-inflammatory effect than DPE; more effective as an anti-inflammatory agent from a dosage standpoint ([1]; versus DPE, dose response profiles at low concentrations): 10-30 fold
CNCC(O)c1ccc(OC(=O)C(C)(C)C)c(OC(=O)C(C)(C)C)c1 (stereo not drawn) [DPE, dipivalylepinephrine] | 33.3 | 17.8 inches ×10^3 and 15.7 inches ×10^3 and 16.2 inches ×10^3 and 18.1 inches ×10^3 and 16.1 inches ×10^3 and 14.5 inches ×10^3 and 18.3 inches ×10^3 | 41.3% and 26.6% and 24.6% and 29.8% and 46.0% and 26.8% and 25.0% and 46.4% | 34.4 | 15.9 inches ×10^3 and 17.3 inches ×10^3 and 17.4 inches ×10^3 and 18.3 inches ×10^3 and 16.6 inches ×10^3 and 15.8 inches ×10^3 and 16.4 inches ×10^3 and 17.2 inches ×10^3 | 31.4% and 35.2% and 35.9% and 48.8% and 32.8% and 26.4% and 27.1% and 37.6% | 22.9 | 25.3 | -21.5 | 8 | 31.3 | 19.7 | 32.3 ± 5.2 | 16.4 inches ×10^3 and 18.2 inches ×10^3 and 17.5 inches ×10^3 and 18.1 inches ×10^3 and 16.8 inches ×10^3 and 18.5 inches ×10^3 and 14.5 inches ×10^3 and 16.0 inches ×10^3 | 29.1% and 32.8% and 31.6% and 40.3% and 36.6% and 37.0% and 22.9% and 30.1% | 27.6 ± 6.9 | 15.8 inches ×10^3 and 16.4 inches ×10^3 and 18.0 inches ×10^3 and 18.3 inches ×10^3 and 17.7 inches ×10^3 and 16.6 inches ×10^3 and 15.2 inches ×10^3 and 16.2 inches ×10^3 | 27.4% and 26.2% and 27.7% and 35.6% and 34.1% and 12.6% and 29.6% | 29.9 ± 10.8 | 18.6 inches ×10^3 and 19.6 inches ×10^3 and 19.8 inches ×10^3 and 16.7 inches ×10^3 and 16.5 inches ×10^3 and 17.1 inches ×10^3 and 13.4 inches ×10^3 and 17.2 inches ×10^3 | psoriatic response in clinical observations (psoriatic response): a psoriatic response was often observed; Δ %, % increase in thickness of the treated ear ([1]; .003 M): 39.8% and 41.0% and 43.5% and 21.9% and 23.1% and 29.5% and 12.6% and 27.4%; mean (-x) of Δ %, % increase in thickness of the treated ear [1, 7]: 39.5 ± 11.4%; R ear (thickness of burned, treated ear) ([1]; .03 M): 17.5 inches ×10^3 and 21.3 inches ×10^3 and 18.1 inches ×10^3 and 18.5 inches ×10^3 and 20.0 inches ×10^3 and 17.4 inches ×10^3 and 15.7 inches ×10^3 and 18.3 inches ×10^3; Δ %, % increase in thickness of the treated ear ([1]; .03 M): 32.6% and 56.6% and 43.7% and 37.0% and 52.7% and 28.9% and 23.6% and 40.8%
